Laboratory results reported in patent publication US8440849B2, “Use of nitroaniline derivatives for the production of nitric oxide” (STMicroelectronics S.r.l., priority 2006, dated 2013).

Experiment: NO photo-release, fluorimetric DAN (2,3-diaminonaphthalene) assay measuring nitrite levels
Conditions: for NO release after irradiation (presence of nitrites, fluorescent spectrum): 350 nm, 8 lamps
From the text: It allows the indirect determination of NO by measuring nitrite levels. In particular, NO is an highly reactive gas that, in the presence of water, forms an equimolar mixture of nitrites and nitrates. Nitrites, reacting with a DAN (2,3-diaminonaphtalene) solution in the presence of an acid, form 1-naphthotriazole, a highly fluorescent compound having a characteristic UV absorbance.
Therefore, the solution of 4-nitro-3-(trifluoromethyl)aniline in methanol after irradiation was dried and then the recovered 4-nitro-3-(trifluoromethyl)aniline was re-dissolved with water and phosphate buffer 0.1 M (pH 7.4). 150 μl of a DAN solution were added to the solution of 4-nitro-3-(trifluoromethyl)aniline heating at 50° C. for 40 minutes. Subsequently, 150 μl of concentrated NaOH was added in order to obtain naphthotriazole ions according to the scheme below.
300 μl of a DAN saturated solution in HCl 0.6 M were added to 3 ml of the irradiated solution of 10-(3-(trifluoromethyl)-4-Nitrophenylamino)decan-1-thiol followed by heating at 50° C. for 20 minutes.
Subsequently, 1 ml of NaOH was added to 1 ml of the solution in order to obtain naphthotriazole ions.
The NO photo-release of the nanoparticles functionalized with 1043-(trifluoromethyl)-4-Nitrophenylamino)decan-1-thiol was measured using fluorimetric assay based on 2,3-diaminonaphthalene (DAN) [T. P. Misko, R. J. Schilling, D. Salvemini, W. M. Moore, M. G. Currie, Anal. […]], as shown in Examples 1 and 2 (FIG. 8).

| SMILES | NO release after irradiation (presence of nitrites, fluorescent spectrum) (methanol solution, 2 hours, DAN, phosphate buffer pH 7.4, FIG. 4) | NO release after irradiation (presence of nitrites, fluorescent spectrum) (CH3OH:H2O (10%) solution, 35 minutes, DAN in HCl 0.6 M, FIG. 6) | NO photo-release profile (trend of the curve) (fluorimetric DAN assay, FIG. 8) |
| --- | --- | --- | --- |
| Nc1ccc([N+](=O)[O-])c(C(F)(F)F)c1 [4-nitro-3-(trifluoromethyl)aniline] | formation of NO |  |  |
| O=[N+]([O-])c1ccc(NCCCCCCCCCCS)cc1C(F)(F)F [10-(3-(trifluoromethyl)-4-Nitrophenylamino)decan-1-thiol] |  | formation of NO | linear behavior |
